These results are taken from ChEMBL document CHEMBL6153155, “Novel Cyclohexyl Amido Acid Antagonists of Lysophosphatidic Acid Type 1 Receptor for the Treatment of Pulmonary Fibrosis” (ACS Med Chem Lett, 2025).

In brackets after ≈: the same amount, converted by molar mass.

Series [1] in a line: Tlast in female C57BL/6J mouse plasma at 30 mg/kg, po measured after 24 hrs by UPLC-MS/MS analysis. In kind it is ADME, organism-based. Conditions: in vivo; call rule not given here.
Series [2] addresses T1, Lysophosphatidic acid receptor 3 (Homo sapiens, UniProt Q9UBY5).
T1 sequence (Q9UBY5 whole entry): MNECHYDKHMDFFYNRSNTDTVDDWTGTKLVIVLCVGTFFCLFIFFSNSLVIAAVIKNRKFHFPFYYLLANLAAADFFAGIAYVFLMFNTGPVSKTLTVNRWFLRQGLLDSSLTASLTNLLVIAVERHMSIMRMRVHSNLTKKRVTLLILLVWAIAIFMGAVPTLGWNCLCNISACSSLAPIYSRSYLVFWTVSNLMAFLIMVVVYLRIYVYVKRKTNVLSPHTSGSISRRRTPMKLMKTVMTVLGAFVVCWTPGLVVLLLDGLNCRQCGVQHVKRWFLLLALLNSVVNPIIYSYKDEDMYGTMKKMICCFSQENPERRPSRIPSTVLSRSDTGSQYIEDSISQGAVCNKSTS
Nature of the series: Antagonist activity at human LPA3 expressed in human HeLa cells incubated for 30 mins by FLIPR-based calcium mobilization assay. In kind it is functional, cell-based. (In general: A change in cytosolic calcium serves as a functional read-out for many receptors and channels.)

Series [3] can be described thus: Tlast in female C57BL/6J mouse lung at 30 mg/kg, po measured after 24 hrs by UPLC-MS/MS analysis. Conditions: in vivo. In kind it is ADME, organism-based.
A short description of series [4]: Toxicity in cynomolgus monkey assessed as partially closed eyelids at 210 mg/kg/day, po bid measured after 4 days. The settings on record: in vivo, 96 h, time 4 day. In kind it is organism-based, Macaca fascicularis.
A short description of series [5]: Total Cmax in female C57BL/6J mouse lung at 30 mg/kg, po measured after 24 hrs by UPLC-MS/MS analysis. In kind it is ADME, organism-based.
Series [6] can be described thus: Unbound Cmax in female C57BL/6J mouse plasma at 30 mg/kg, po measured after 24 hrs by UPLC-MS/MS analysis. In kind it is ADME, organism-based. Conditions: in vivo.
The target of series [7] is T2, ATP-binding cassette sub-family C member 4 (Homo sapiens, UniProt O15439).
T2 sequence (O15439 whole entry): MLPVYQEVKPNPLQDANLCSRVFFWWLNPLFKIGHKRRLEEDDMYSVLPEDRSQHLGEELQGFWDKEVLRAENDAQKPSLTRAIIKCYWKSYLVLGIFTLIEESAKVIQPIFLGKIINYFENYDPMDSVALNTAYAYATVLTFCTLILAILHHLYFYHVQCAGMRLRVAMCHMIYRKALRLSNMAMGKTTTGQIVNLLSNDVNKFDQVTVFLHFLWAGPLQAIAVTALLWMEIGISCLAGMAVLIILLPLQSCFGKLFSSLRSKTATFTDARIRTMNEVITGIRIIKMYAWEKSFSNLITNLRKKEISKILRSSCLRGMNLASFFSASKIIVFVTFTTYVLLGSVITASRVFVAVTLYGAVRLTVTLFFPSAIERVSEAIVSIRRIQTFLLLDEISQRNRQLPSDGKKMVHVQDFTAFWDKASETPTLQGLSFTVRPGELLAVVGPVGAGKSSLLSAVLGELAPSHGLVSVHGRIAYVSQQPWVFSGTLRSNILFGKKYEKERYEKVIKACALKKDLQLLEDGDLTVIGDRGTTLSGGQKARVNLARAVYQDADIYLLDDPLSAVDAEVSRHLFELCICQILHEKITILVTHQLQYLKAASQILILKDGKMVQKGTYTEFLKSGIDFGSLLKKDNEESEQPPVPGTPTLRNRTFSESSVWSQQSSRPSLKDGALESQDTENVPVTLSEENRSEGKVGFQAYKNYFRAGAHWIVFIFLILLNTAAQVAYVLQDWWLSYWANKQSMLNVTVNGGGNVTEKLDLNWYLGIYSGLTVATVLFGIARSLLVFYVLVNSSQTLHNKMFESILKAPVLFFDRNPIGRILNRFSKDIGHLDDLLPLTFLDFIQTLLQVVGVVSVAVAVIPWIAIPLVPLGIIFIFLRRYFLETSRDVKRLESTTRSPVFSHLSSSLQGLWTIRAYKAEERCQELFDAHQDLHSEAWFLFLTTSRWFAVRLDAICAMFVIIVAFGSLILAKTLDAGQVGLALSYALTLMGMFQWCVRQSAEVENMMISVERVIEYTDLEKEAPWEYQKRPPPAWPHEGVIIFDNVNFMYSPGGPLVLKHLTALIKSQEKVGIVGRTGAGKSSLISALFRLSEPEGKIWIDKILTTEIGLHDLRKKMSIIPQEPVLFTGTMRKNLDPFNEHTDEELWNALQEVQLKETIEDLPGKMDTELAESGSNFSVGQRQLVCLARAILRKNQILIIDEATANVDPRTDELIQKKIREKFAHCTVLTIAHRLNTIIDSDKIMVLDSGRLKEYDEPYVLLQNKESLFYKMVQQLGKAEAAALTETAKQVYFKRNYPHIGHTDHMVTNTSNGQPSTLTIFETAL
Nature of the series: Inhibition of MRP4 (unknown origin) in presence of ATP by membrane vesicular transport assay. In kind it is cell membranes, Membrane vesicle.

Series [8] can be described thus: Half life in female C57BL/6J mouse at 2 mg/kg, iv measured after 24 hrs by UPLC-MS/MS analysis. In kind it is ADME, organism-based. The settings on record: in vivo.
Series [9] has as its target T3, Solute carrier organic anion transporter family member 1B3 (Homo sapiens, UniProt Q9NPD5).
T3 sequence (Q9NPD5 whole entry): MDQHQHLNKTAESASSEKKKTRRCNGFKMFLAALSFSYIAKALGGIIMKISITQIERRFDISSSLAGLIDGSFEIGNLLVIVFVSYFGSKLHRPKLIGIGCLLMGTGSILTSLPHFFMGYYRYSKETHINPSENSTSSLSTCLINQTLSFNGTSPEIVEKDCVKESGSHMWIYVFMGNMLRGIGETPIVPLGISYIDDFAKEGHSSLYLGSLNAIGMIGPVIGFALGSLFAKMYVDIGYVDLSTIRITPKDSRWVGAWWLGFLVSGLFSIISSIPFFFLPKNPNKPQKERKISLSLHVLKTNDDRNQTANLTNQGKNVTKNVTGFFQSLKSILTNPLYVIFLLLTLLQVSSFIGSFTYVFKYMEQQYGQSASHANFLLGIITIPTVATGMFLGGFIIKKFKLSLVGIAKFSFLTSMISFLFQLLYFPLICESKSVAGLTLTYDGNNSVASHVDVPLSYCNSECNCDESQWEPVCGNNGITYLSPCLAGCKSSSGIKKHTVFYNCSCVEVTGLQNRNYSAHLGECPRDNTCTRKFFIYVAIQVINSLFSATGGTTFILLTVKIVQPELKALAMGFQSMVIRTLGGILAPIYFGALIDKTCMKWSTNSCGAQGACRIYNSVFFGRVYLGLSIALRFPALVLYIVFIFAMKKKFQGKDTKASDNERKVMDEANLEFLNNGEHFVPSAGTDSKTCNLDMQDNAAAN
Put plainly: Inhibition of human OATP1B3 in HEK293 cells. In kind it is cell-based.

A short description of series [10]: Toxicity in cynomolgus monkey assessed as appearance of sinusoidal leukocytosis in liver at 50 mg/kg, po bid by microscopic analysis. In kind it is organism-based, Macaca fascicularis. Conditions: in vivo.
Series [11] can be described thus: Aqueous solubility of the compound at pH 7.4. In kind it is physicochemical. The settings on record: buffer.
Series [12] can be described thus: Toxicity in cynomolgus monkey assessed as abnormally cold to touch at 210 mg/kg/day, po bid measured after 4 days. In kind it is organism-based, Macaca fascicularis. The settings on record: in vivo, 96 h, time 4 day.
The nature of series [13]: Drug uptake in mouse lung at 30 mg/kg, po measured upto 24 hrs. In kind it is ADME, organism-based. The settings on record: in vivo.

As for `Cc1nc(-c2onc(C)c2NC(=O)O[C@H](C)c2ccccc2Cl)ccc1NC(=O)[C@H]1CCCC[C@@H]1C(=O)O`, the Tlast in [1] and in series [3] was 24 h each time. Moreover, the IC50 in series [2] was 37.2 µM; in series [7], 63.1 µM; in series [9], 7.94 µM. The Activity result in [4], in series [10] and in series [12] was “Toxic” in each case. In addition, the Cmax in series [5] worked out at 41300 ng/mL. The compound further came in with a fCmax in series [6] of 1479 ng/mL. Further, the half-life in [8] was 1.84 h. Moreover, in series [11], the concentration in solution (solubility) came to 505 µM (≈ 273 µg/mL). Besides, the Drug uptake result in [13] is on record as “Active”.

Broadly, the IC50 is the concentration at which inhibition is half-maximal. As a reminder, the Cmax is the peak of the concentration-time curve. A word on the half-life: it is how long it takes for the measured level to halve. For orientation: solubility means the dissolved amount per volume that the medium holds.
